We go through four molecules from ChEMBL document CHEMBL1159153, “Synthesis and biological activity of 3,4,5-trihydroxy etoposide” (Bioorg Med Chem Lett, 1993).

Experiment [1] concerns Mus musculus. Put plainly: Long time survivors of mice alive/total on day 30 after administration of the compound; 1 survived out of 4 mice. The format is functional.
In experiment [2] the test system is Mus musculus. Put plainly: Tested for percent median survival time of drug-treated mice compared to saline -treated control at a dose of 120 mg/kg intraperitoneally. It is filed as functional. The conditions noted are these: route intraperitoneal.
Experiment [3] relates to Mus musculus. Put plainly: Long-time survivors of mice alive/total on day 30 after administration (60 mg/kg per injection) intraperitoneally on days 1 and 5. The format is functional.
For experiment [4], the system named is Mus musculus. Put plainly: Tested for percent median survival time of drug-treated mice compared to saline -treated control at a dose of 80 mg/kg intraperitoneally. The format is functional. The following applies: route intraperitoneal.
Experiment [5] deals with Mus musculus. Put plainly: Long time survivors of mice alive/total on day 30 after administration of the compound; 3 survived out of 4 mice. It is filed as functional.
Experiment [6] deals with Mus musculus. Put plainly: Tested for percent median survival time of drug-treated mice compared to saline -treated control at a dose of 40 mg/kg intraperitoneally. It is filed as functional. The conditions noted are these: route intraperitoneal.
In experiment [7] the test system is Mus musculus. Put plainly: Long time survivors of mice alive/total on day 30 after administration (60 mg/kg per injection) intraperitoneally on days 1 and 5; 2 survived out of 4 mice. The format is functional.
Experiment [8] concerns Mus musculus. Put plainly: Tested for percent median survival time of drug-treated mice compared to saline -treated control at a dose of 25 mg/kg intraperitoneally. The format is functional. The following applies: route intraperitoneal.
The test system of the next experiment is HCT-116. Put plainly: Tested for in vitro cytotoxicity against HCT116 cells. It is filed as functional, cell-based. The conditions noted are these: Homo sapiens.
Experiment [9] deals with Mus musculus. Put plainly: Tested for percent median survival time of drug-treated mice compared to saline -treated control at a dose of 100 mg/kg intraperitoneally. The following applies: route intraperitoneal. The format is functional.
Experiment [10] deals with Mus musculus. Put plainly: Long time survivors of mice alive/total on day 30 after administration (60 mg/kg per injection) intraperitoneally on days 1 and 5; 4 survived out of 4 mice. The format is functional.
In experiment [11] the test system is Mus musculus. Put plainly: Tested for percent median survival time of drug-treated mice compared to saline -treated control at a dose of 50 mg/kg intraperitoneally. The conditions noted are these: route intraperitoneal. It is filed as functional.
Experiment [12] relates to Mus musculus. Put plainly: Long-time survivors of mice alive/total on day 30 after administration (100 mg/kg) intraperitoneally on days 5 and 8 (experiment 1). It is filed as functional.
Experiment [13] relates to Mus musculus. Put plainly: Tested for percent median survival time of drug-treated mice compared to saline -treated control at a dose of 38 mg/kg intraperitoneally. The conditions noted are these: route intraperitoneal. The format is functional.
A further experiment has as its system HCT cell line. Put plainly: Compound was evaluated for in vitro cytotoxicity against HCT/VP35 cells. It is filed as functional, cell-based. The following applies: Homo sapiens.
The nature of experiment [14]: Ratio of inhibition of HCT116 to that of inhibition of HCT/VP 35 cells. It is filed as functional, HCT-116.
The test system of experiment [15] is Mus musculus. Put plainly: Tested for percent median survival time of drug-treated mice compared to saline -treated control at a dose of 150 mg/kg intraperitoneally. It is filed as functional. The conditions noted are these: route intraperitoneal.
Experiment [16] concerns Mus musculus. Put plainly: Tested for percent median survival time of drug-treated mice compared to saline -treated control at a dose of 75 mg/kg intraperitoneally. It is filed as functional. The following applies: route intraperitoneal.

Values after ≈ are worked out from the molar mass of the structure shown. Some results are limits rather than exact numbers.

With `COC1=CC([C@@H]2c3cc4c(cc3[C@@H](O[C@@H]3O[C@@H]5CO[C@@H](C)O[C@H]5[C@H](O)[C@H]3O)[C@H]3COC(=O)[C@@H]32)OCO4)=CC(=O)C1=O`, the LTS was more than 1 in the experiment with Mus musculus [1], 3 in the experiment with Mus musculus [5] and 2 in the experiment on Mus musculus [7]. Besides, the figures for the T/C in the experiment on Mus musculus [2], in the experiment on Mus musculus [4] and in the experiment on Mus musculus [6] were 447, more than 621 and 274, respectively. Moreover, the Max T/C with Mus musculus [3] was more than 595%.

Turning to `COc1cc([C@@H]2c3cc4c(cc3[C@@H](O[C@@H]3O[C@@H]5CO[C@@H](C)O[C@H]5[C@H](O)[C@H]3O)[C@H]3COC(=O)[C@H]23)OCO4)cc(O)c1O`, the LTS is reported as 1 in the experiment with Mus musculus [1], 2 with Mus musculus [5] and 4 in the experiment on Mus musculus [10]. The T/C with Mus musculus [8] is 250; in the experiment with Mus musculus [9], 344; with Mus musculus [11], more than 413. Moreover, in the experiment with Mus musculus [3], the Max T/C was more than 563%. In the experiment with HCT-116, this molecule gave a half-inhibitory concentration (IC50) of 35 µg/mL (≈ 60.9 µM).

`C[C@@H]1OC[C@H]2O[C@@H](O[C@@H]3c4cc5c(cc4[C@@H](c4cc(O)c(O)c(O)c4)[C@H]4C(=O)OC[C@@H]43)OCO5)[C@H](O)[C@@H](O)[C@@H]2O1` showed a Max T/C in the experiment with Mus musculus [12] of 230%. In addition, the T/C was found to be 100 with Mus musculus [13], 150 in the experiment on Mus musculus [15] and 130 in the experiment with Mus musculus [16]. Moreover, the 50% inhibitory concentration (IC50) in the experiment on HCT cell line is 68.9 µg/mL (≈ 123 µM); in the experiment with HCT-116 it was 79 µg/mL (≈ 141 µM). The Ratio in experiment [14] was 0.87.

`COc1cc([C@@H]2c3cc4c(cc3[C@@H](O[C@@H]3O[C@@H]5CO[C@@H](C)O[C@H]5[C@H](O)[C@H]3O)[C@H]3COC(=O)[C@H]23)OCO4)cc(OC)c1O` [ETOPOSIDE]: the half-inhibitory concentration (IC50) with HCT cell line amounted to 5.2 µg/mL (≈ 8.84 µM); in the experiment on HCT-116 it was 0.35 µg/mL (≈ 0.595 µM). In addition, the Ratio in [14] is on record as 15.
